The record followed here is ChEMBL document CHEMBL1909499, “Protective effects of amentoflavone on Lamin A-dependent UVB-induced nuclear aberration in normal human fibroblasts” (Bioorg Med Chem Lett, 2011).

Each structure is given as a SMILES string. Calls of active or inactive are those of the source. The rule behind the calls is not given here.

Series [1] relates to Fibroblast. The series can be described thus: Antiaging activity in human fibroblasts assessed as reduction in UVB-induced lamin A protein level after 6 days by Western blot method. Type of series: functional, cell-based.
Series [2] relates to Fibroblast. The series can be described thus: Antiaging activity in fibroblasts isolated from human assessed as reduction in UVB-induced phospho-H2AX protein level after 6 days by Western blotting method. Type of series: functional, cell-based. A general note: Immunoblotting shows a protein as a band on a membrane.
Series [3] is described as follows: Cytotoxicity against human UVB-induced fibroblasts assessed as cell viability. The note with it: fibroblast. Type of series: cell-based.
The test system of series [4] is Fibroblast. The series can be described thus: Antiaging activity in human fibroblasts assessed as reduction in UVB-induced phospho-H2AX protein level after 6 days by Western blotting method. Type of series: functional, cell-based.
In series [5] the test system is Fibroblast. Nature of the series: Antiaging activity in human fibroblasts assessed as reduction of UVB-induced nucleus deformation after 6 days by confocal microscopy analysis. Type of series: functional, cell-based.
In series [6] the test system is Fibroblast. The series can be described thus: Antiaging activity in human fibroblasts assessed as reduction in UVB-induced phospho-H2AX protein level after 6 days by confocal microscopy analysis. Type of series: functional, cell-based.

For the molecule `O=c1cc(-c2ccc(O)c(-c3c(O)cc(O)c4c(=O)cc(-c5ccc(O)cc5)oc34)c2)oc2cc(O)cc(O)c12` [AMENTOFLAVONE], the Activity entry is “Dose-dependent effect” in the series on Fibroblast [1], “Dose-dependent effect” in the series with Fibroblast [2], “Non-toxic” in series [3] and “Dose-dependent effect” in the series on Fibroblast [4]. Also, the outcome with Fibroblast [5] and with Fibroblast [6] was Active.
